According to ChEMBL document CHEMBL1137120, “Synthesis and biological evaluation of flavonoids as vasorelaxant agents” (2004):

Organism: Rattus norvegicus
Assay: Tested for vasorelaxant activity in rat thoracic aorta rings against PE-induced contractions
Format: functional

SMILES	Maximal relaxation [%]
Cc1ccc(-c2cc(=O)c3c(O)cc(O)cc3o2)cc1	77.2
O=c1c(O)c(-c2ccc(O)c(O)c2)oc2cc(O)cc(O)c12 [QUERCETIN]	45.9
C[C@@H]1O[C@@H](OC[C@H]2O[C@@H](Oc3c(-c4ccc(O)c(O)c4)oc4cc(O)cc(O)c4c3=O)C(O)[C@@H](O)[C@@H]2O)[C@H](O)[C@H](O)[C@H]1O (single isomer, unassigned) [RUTIN]	24.7
O=c1c(O[C@@H]2O[C@H](CO)C(O)C(O)[C@H]2O)c(-c2ccc(O)c(O)c2)oc2cc(O)cc(O)c12 (single isomer, unassigned) [ISOQUERCETIN]	34
O=c1c(O[C@@H]2OC[C@@H](O)[C@H](O)[C@@H]2O)c(-c2ccc(O)c(O)c2)oc2cc(O)cc(O)c12	24.7
O=c1cc(-c2cccc(Br)c2)oc2cc(O)cc(O)c12	95
O=c1cc(-c2ccc(O)c(O)c2)oc2cc(O)cc(O)c12 [LUTEOLIN]	70.2
O=c1c(O[C@@H]2OC[C@@H](O)[C@@H](O)[C@H]2O)c(-c2ccc(O)c(O)c2)oc2cc(O)cc(O)c12	35.1
Cc1c(O)c(C)c2c(c1O)C(=O)C(O)C(c1ccc(O)cc1)O2 (centres undefined)	64.4
O=c1cc(-c2ccccc2)oc2cc(O[C@@H]3O[C@H](CO)[C@@H](O)C(O)[C@H]3O)c(O)c(O)c12 (single isomer, unassigned)	36.2
O=c1cc(-c2ccc(Cl)cc2)oc2cc(O)cc(O)c12	92.7
O=c1cc(-c2ccc3c(c2)OCO3)oc2cc(O)cc(O)c12	91.3
COc1cccc(-c2cc(=O)c3c(O)cc(O)cc3o2)c1	80.8
COCOc1c(-c2ccc(O)c(O)c2)oc2cc(O)cc(O)c2c1=O	71.6
